Measured values reported in ChEMBL document CHEMBL3217554, “Fast and effective identification of the bioactive compounds and their targets from medicinal plants via computational chemical biology approach” (Medchemcomm, 2011).

biological target: Dipeptidyl peptidase 4 (Homo sapiens, UniProt P27487); assay: Inhibition of human DPP4 using H-Gly-Pro-AMC peptide substrate assessed as increase in fluorescence for 20 mins by fluorimetric assay
Sequence (P27487 whole entry): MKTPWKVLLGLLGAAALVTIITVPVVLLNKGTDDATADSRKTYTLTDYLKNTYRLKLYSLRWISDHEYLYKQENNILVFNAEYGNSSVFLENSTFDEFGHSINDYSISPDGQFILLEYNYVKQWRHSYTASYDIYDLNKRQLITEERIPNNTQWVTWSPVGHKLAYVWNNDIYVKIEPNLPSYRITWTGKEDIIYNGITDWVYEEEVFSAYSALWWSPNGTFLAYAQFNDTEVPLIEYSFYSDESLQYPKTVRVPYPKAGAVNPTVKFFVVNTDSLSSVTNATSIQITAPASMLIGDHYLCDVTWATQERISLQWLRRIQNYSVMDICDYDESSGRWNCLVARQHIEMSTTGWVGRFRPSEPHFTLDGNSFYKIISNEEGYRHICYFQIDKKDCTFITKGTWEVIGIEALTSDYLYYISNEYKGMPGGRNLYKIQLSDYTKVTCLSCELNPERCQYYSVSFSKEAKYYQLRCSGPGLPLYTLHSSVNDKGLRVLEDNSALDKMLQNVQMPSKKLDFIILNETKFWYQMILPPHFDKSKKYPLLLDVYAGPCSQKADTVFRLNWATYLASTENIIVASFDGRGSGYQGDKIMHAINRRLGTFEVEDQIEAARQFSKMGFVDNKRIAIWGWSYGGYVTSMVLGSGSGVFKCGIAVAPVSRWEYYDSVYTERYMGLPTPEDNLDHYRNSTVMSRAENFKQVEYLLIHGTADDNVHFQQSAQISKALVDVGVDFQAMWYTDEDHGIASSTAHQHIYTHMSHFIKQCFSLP

Structure (SMILES) | IC50
O=C(/C=C/c1ccc(O[C@@H]2O[C@H](CO)[C@@H](O)[C@H](O)[C@H]2O)cc1)c1ccc(O)cc1O [ISOLIQUIRITIN] | 26.9 µM
O=c1c(O)c(-c2ccc(O)c(O)c2)oc2cc(O)cc(O)c12 [QUERCETIN] | 32.7 µM
C=C(C)[C@@H]1CC[C@]2(C(=O)O)CC[C@]3(C)[C@H](CC[C@@H]4[C@@]5(C)CC[C@H](O)C(C)(C)[C@@H]5CC[C@]43C)[C@@H]12 [BETULINIC ACID] | 55.8 µM
CC[C@H](CC[C@@H](C)[C@H]1CC[C@H]2[C@@H]3CC=C4C[C@@H](O)CC[C@]4(C)[C@H]3CC[C@]12C)C(C)C [BETA-SITOSTEROL] | 28.8 µM
O=C(O)/C=C/c1ccc(O)cc1 [COUMARIC ACID] | 83.2 µM
O=c1c(O)c(-c2cc(O)c(O)c(O)c2)oc2cc(O)cc(O)c12 [MYRICETIN] | 37.1 µM

The next lines start with the values.

IC50 | Structure (SMILES)
56.2 µM | COc1ccc2c(c1OC)CN(C)c1c-2ccc2cc3c(cc12)OCO3 [DIHYDROCHELERYTHRINE]
87.7 µM | CCOC(=O)/C=C/c1ccc(O)c(O)c1 [ETHYL CAFFEATE]
33.1 µM | COc1cc(O)c(C(=O)/C=C/c2ccc(O)cc2)c(OC)c1 [FLAVOKAWAIN C]
41.4 µM | COC(=O)C1(O)CC(O)C(O)C(OC(=O)/C=C/c2ccc(O)c(O)c2)C1 (stereo not drawn)
87.1 µM | COc1cc2cc(Oc3ccc4ccc(=O)oc4c3)c(=O)oc2cc1O [DAPHNORETIN]
38.4 µM | O=C(CC(O)CCc1ccccc1)c1ccc(O)cc1 (stereo not drawn)
114 µM | CCOC(=O)c1c(O)cc(O)c2c1OC(c1ccc(O)cc1)CC2 (stereo not drawn)
